Reference: PubChem BioAssay (NCI)
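1) Cells in 96-well plates. 2) Compound, 48 h, 5 concentrations. 3) Linear interpolation between surrounding doses. 4) Unreached endpoint = highest concentration. TGI: total growth inhibition.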

Experiments:
Assay in all cases: DTP human tumour cell line panel, 48 h
IGROV1 ovarian = system: IGROV1 ovarian
NCI/ADR-RES ovarian = system: NCI/ADR-RES ovarian
U251 CNS = system: U251 CNS
SK-MEL-2 melanoma = system: SK-MEL-2 melanoma
T-47D breast = system: T-47D breast
UACC-62 melanoma = system: UACC-62 melanoma
HCT-15 colon = system: HCT-15 colon
SF-268 CNS = system: SF-268 CNS
K-562 leukemia = system: K-562 leukemia
HOP-92 NSCLC = system: HOP-92 NSCLC

Structure (SMILES)	TGI (IGROV1 ovarian) [µM]	TGI (NCI/ADR-RES ovarian) [µM]	TGI (U251 CNS) [µM]	TGI (SK-MEL-2 melanoma) [µM]	TGI (T-47D breast) [µM]	TGI (UACC-62 melanoma) [µM]	TGI (HCT-15 colon) [µM]	TGI (SF-268 CNS) [µM]	TGI (K-562 leukemia) [µM]	TGI (HOP-92 NSCLC) [µM]
O=C(NC(=O)c1ccccc1)OC(c1ccccc1)C1CO1 (stereo not drawn)	> 100	> 100	> 100	> 100	> 100	> 100	> 100	> 100	> 100	
Fc1ccc(Oc2nc3ccccc3nc2-c2ccccc2)cc1	> 100		> 100	> 100		> 100	> 100	> 100	> 100	> 100
COc1ccc(C(=O)N2CCN(c3ccc4c(c3)OCC(=O)N4)CC2)cc1OC	> 100	> 100	> 100	> 100	> 100	> 100	> 100	> 100		> 100
Cc1ccc(C(=O)O)c(/C=C2\Cc3cc(C)cc(C)c3C2=O)c1	> 100		> 100	> 100	> 100	> 100	> 100	> 100	> 100	
CN1CN(c2ccccc2)C2(CCN(C3Nc4ccccc4O3)CC2)C1=O (stereo not drawn)	58.5	56.1	33.3	28.3	58.8	31	28.8	61	> 100	
COC(=O)CNC(=O)CNC(=O)CSc1nnc(COc2ccc(Cl)cc2)n1-c1ccccc1	39.4	> 100	> 100	43.9		33.5	> 100	51.6	> 100	49.5
O=C1NC(=S)N/C1=C\c1ccc(Cl)cc1	> 100	> 100	> 100	> 100	> 100	> 100	> 100	> 100		
C/C(=N\Nc1nc2ccccc2o1)c1ncccn1	1.16	< 0.0335	14.8	13.6	28.5	0.449	20.3	> 72.2		16.6
Cc1n[nH]c(=O)n1Nc1ccccc1	> 100	> 100	> 100		> 100	> 100	> 100	> 100	> 100	> 100
C=C[C@]1(C)CC(=O)C(C(C)C=O)[C@]12C(=O)Oc1cccc(C)c1C2=O (stereo partly drawn)			28.3	32.4	34.1	31	28.3	43.3	53.2	
Cc1ccc(N=NN(C)C(C)C(O)Cc2ccccc2)cc1 (stereo not drawn)	> 100	> 100	> 100	> 100	88.5	> 100	> 100	> 100	> 100	
CC(O)CC(=O)CO[C@H]1[C@H](O)[C@@H](O)[C@@H](O)[C@@H]2NC(=O)c3c(cc4c(c3O)OCO4)[C@H]21 (stereo partly drawn)	0.256	27.6	0.307	0.261	0.109	0.682		0.0626	4.14	0.64
CCCCC(O)(c1ccccc1)C(O)(c1ccccc1)c1c(F)c(F)c(F)c(F)c1F (stereo not drawn)	> 100	49.1	32		> 100	39.2	30.1	53.1	82.4	44.8
CCC(=O)N(c1ccccc1)C(C)CN1CCC(O)(c2cccc(C(F)(F)F)c2)CC1 (stereo not drawn)	> 100	53.4	> 100	43	98.4	49.1	90.9		75.4	61.6
CCCC(=O)N(C)N=Nc1ccc(C(=O)OCC)cc1	> 100		> 100	> 100	> 100	> 100	> 100	> 100	> 100	> 100
COc1ccc(-c2[nH]c(-c3ccc(OC)cc3)c(-c3ccccn3)c2-c2ccccn2)cc1	> 100	> 100	> 100		> 100	> 100	> 100	> 100	84.5	> 100
CC(=O)Nc1ncc2c(n1)-c1ccccc1OC2c1ccccc1 (stereo not drawn)	> 100	> 100	> 100	> 100	68.4	36.4	> 100	63.5		41.4
